Laboratory results from PMC5321639, “Design and pharmacodynamics of recombinant NZ2114 histidine mutants with improved activity against methicillin-resistant Staphylococcus aureus” (AMB Express, 2017).
Where a SMILES comes first, the peptide text is derived from it. Bridges are numbered along the chain shown (N, C = ends).

Legend:
S. aureus ATCC43300 = test: microbe, parasite or virus in culture; type: cell-based, Staphylococcus aureus; settings: for MICc (MIC of the most effective combination): checkerboard; for FIC: MICc/MICa
Description: The MIC values of four antibiotics (vancomycin, ampicillin, rifampicin and ciprofloxacin) to S. aureus ATCC43300 were tested as the MIC assay described above. The peptide solutions and antibiotics were diluted twofold with the final concentrations ranging from 1/16 to 8× MIC, and added into 96-well plates in a checkerboard fashion (White et al. [1996]). The results of combination were evaluated by calculating the fractional inhibitory concentration index (FICI) of each combination. FIC of H1, H2, H3=MIC of H1, H2, H3, respectively, in combination with antibiotic/MIC of H1, H2, H3 alone; FIC of antibiotics=MIC of antibiotic in combination with peptide/MIC of antibiotic alone; FICI = FIC of H1, H2, H3+ antibiotic, respectively. The result of interaction between two antimicrobial drugs was determined according to: FICI ≤ 0.5 refers to synergy, 0.5 < FICI ≤ 1 refers to additivity, 1 < FICI ≤ 4 refers to indifference, and FICI > 4 is defined as antagonism (Tsuji and Rybak [2006]).

mice red blood cells = test: Hemolytic assay; type: cell-based; settings: 0.23 to 7.27 μM (1–32 μg/ml), 37 °C 1 h
Description: The mice blood cells were washed three times in stroke-physiological saline solution (0.9% NaCl) and centrifuged at 4 °C, 2000 rpm for 5 min. A 50-μl cell was diluted to 8% (v/v), added into 96-well plates, and mixed with 50-μl peptide to the final concentrations ranging from […]. The plates were incubated at 37 °C for 1 h, and centrifuged at 4 °C, 5000 rpm for 5 min. The absorbance of supernatants was measured at 540 nm, and 0 and 100% hemolysis was measured by 0.9% NaCl and 0.1% Triton X-100, respectively. The hemolysis percentages were calculated by the following equation: [(Abs540 nm in H1, H2, H3 solution − Abs540 nm in 0.9% NaCl)/(Abs540 nm in 0.1% Triton X-100 − Abs540 nm in 0.9% NaCl)] ×100% (Jiao et al. [2015]).

[1] = in combination with ciprofloxacin

With `CC[C@H](C)[C@@H]1NC(=O)[C@H](CO)NC(=O)[C@H](CCCCN)NC(=O)[C@@H]2CSSC[C@@H](C(=O)N[C@@H](Cc3ccc(O)cc3)C(=O)O)NC(=O)[C@H](CCCCN)NC(=O)[C@@H]3CSSC[C@H](NC(=O)[C@H](CCCNC(=N)N)NC(=O)[C@H](CC(C)C)NC(=O)[C@H](CC(=O)O)NC(=O)[C@H](CC(=O)O)NC(=O)[C@H](CCC(=O)O)NC(=O)[C@H](CC(N)=O)NC(=O)[C@H](Cc4c[nH]c5ccccc45)NC(=O)[C@@H]4CCCN4C(=O)CNC(=O)[C@H](CC(N)=O)NC(=O)[C@@H](NC(=O)CNC(=O)[C@H](Cc4ccccc4)NC(=O)CN)CSSC[C@H](NC(=O)[C@H](Cc4ccc(O)cc4)NC(=O)CNC(=O)CNC(=O)[C@H](CCCCN)NC(=O)[C@H](Cc4ccc(O)cc4)NC(=O)CNC(=O)[C@H](CCCCN)NC1=O)C(=O)N[C@@H](C)C(=O)N[C@@H](CCCCN)C(=O)NCC(=O)NCC(=O)N[C@@H](Cc1ccccc1)C(=O)N[C@@H](C(C)C)C(=O)N3)C(=O)N[C@@H](CCCNC(=N)N)C(=O)N[C@@H](CC(N)=O)C(=O)N[C@@H](Cc1c[nH]cn1)C(=O)N2` [H2] (H-GFGCNGPWNEDDLRCRNHCKSIKGYKGGYCAKGGFVCKCY-OH; disulfide 4-30, 15-37, 19-39 (inferred); N-terminus and C-terminus assumed) the “MICc (MIC of the most effective combination)” value (“MICc” for short) (S. aureus ATCC43300; in combination with ampicillin) was 0.113 µM, the “MICc” value (S. aureus ATCC43300; [1]) was 0.227 µM and the “MICc” value (S. aureus ATCC43300; in combination with rifampicin) was 0.056 µM. The “MICc” value (S. aureus ATCC43300; in combination with vancomycin) was 0.113 µM, the MIC (S. aureus ATCC43300; drug alone, read-out: MICa (MIC of drug alone)) was 0.113 µM and the FIC (S. aureus ATCC43300; in combination with ampicillin) was 1. It also gave an FIC (S. aureus ATCC43300; [1]) of 2, an FIC (S. aureus ATCC43300; in combination with rifampicin) of 0.5 and an FIC (S. aureus ATCC43300; in combination with vancomycin) of 1. The hemolytic activity (mice red blood cells) was “little or no hemolytic activity”.
